# In patent US6423547B1, “Non-covalent bioconjugates useful for diagnosis and therapy” (Mallinckrodt Inc., priority 1998, dated 2002):
# Read-outs that look alike come from different tables or passages of the source.
# Key:
# [1] = Stability of benzothiazolim-squaraine dye and bioconjugates in aqueous solution, fluorescence intensity at 665 nm; type: physicochemical; conditions: 665 nanometers, ambient temperature
# [2] = Stability of carboxyphloroglucinol-squaraine dye and bioconjugates in aqueous solution, fluorescence intensity at 613 nm; type: physicochemical; conditions: 613 nanometers (λex=515), ambient temperature
# [3] = Stability of cyanine blue dye and conjugates in aqueous solution, fluorescence intensity at 670 nm; type: physicochemical; conditions: 670 nanometers, ambient temperature
# [4] = cited from earlier work
# [5] = in vivo; cited from earlier work
# [6] = 822 nanometers, ambient temperature, aqueous solution
# Procedure: An aqueous solution of indocyanine green (ICG) and the carriers, inulin, poly-d,l-aspartic acid, polyguanylic acid, MBSA, and γ-cyclodextrin were prepared and the fluorescence intensity was monitored at ambient temperature at various time intervals.
# [7] = Blood clearance in rats monitored by fluorescence from ear capillaries; conditions: rat, injected through lateral tail vein; excitation 780 nm, emission 830 nm
# Procedure: A 500 μL portion of indocyanine green solution (0.8 mg/mL) was injected through the lateral tail vein of Sprague-Dawley or Fischer rats. Blood clearance of the dye bioconjugate was monitored by fluorescence signal emanating from the capillaries of the ear surface using a laser fluorescence apparatus (excitation, 780 nm; emission 830 nm).
compound,measurement,setting,value
"O=C(O)CN1/C(=C/C2=C(O)C(=C/c3sc4ccccc4[n+]3CC(=O)O)/C2=O)Sc2ccccc21 [Benzothiazolim Dye/Water, Benzothiazolium Squaraine Dye]",Percent Decrease in Fluorescence,[1]; 2 Hours,92%
same,Percent Decrease in Fluorescence,[1]; 4 Hours,64%
same,Percent Decrease in Fluorescence,[1]; 24 Hours,46%
O=C(O)C1=C(O)/C(=C2/C(=O)C(c3c(O)cc(O)c(C(=O)O)c3O)=C2O)C(O)=CC1=O [Carboxyphloroglucinol Squaraine Dye],Percent Decrease in Fluorescence,[2]; 2 Hours,13%
same,Percent Decrease in Fluorescence,[2]; 4 Hours,13%
same,Percent Decrease in Fluorescence,[2]; 24 Hours,50%
"O=C(O)CN1/C(=C/C=C/C=C/c2sc3ccccc3[n+]2CC(=O)O)Sc2ccccc21 [Cyanine Blue Dye/Water, Cyanine Blue Dye]",Percent Decrease in Fluorescence,[3]; 2 Hours,20%
same,Percent Decrease in Fluorescence,[3]; 4 Hours,42%
same,Percent Decrease in Fluorescence,[3]; 24 Hours,99%
"CC1(C)C(/C=C/C=C/C=C/C=C2/N(CCCCS(=O)(=O)O)c3ccc4ccccc4c3C2(C)C)=[N+](CCCCS(=O)(=O)O)c2ccc3ccccc3c21.[Na+].[Na+] [indocyanine green, Indocyanine Green Dye]",degradation in aqueous media,[4],undergoes degradation in aqueous media with loss of fluorescence
same,plasma half-life,[5],very short
same,uptake by the liver,[5],rapidly taken up by the liver
same,Percent Decrease in Fluorescence,[6]; 2 Hours,0%
same,Percent Decrease in Fluorescence,[6]; 4 Hours,19%
same,Percent Decrease in Fluorescence,[6]; 24 Hours,48%
same,time constant (τ) for blood clearance,[7],138 s
